Results: US7235267B1, “Brain cell or nerve cell-protecting agents comprising medicinal ginseng” (priority 1999, dated 2007)

How the values were obtained:
[1] = system: Wistar rats with spinal cord injury; assay: Spinal cord injury model (20 g compression on lower thoracic cord for 20 minutes); type: in vivo, rat; details: for paralysis or paraplegia of both lower limbs: Solu-Medrol intravenous 30 mg/kg on the same schedule, 30 mg/kg
Excerpt: The present inventors have investigated the effects of repetitive or continuous intravenous administration of ginsenoside Rb1 using rats with spinal cord injury and the effects were compared with those of repetitive or continuous intravenous administration of a crude saponin fraction of medicinal ginseng. If pressure is loaded on certain spinal segments such as the lower thoracic cord, not only nerve cells (neurons) in the gray matter of the same region but also fiber tracts or pathways in the white matter of the same region are damaged. The damages to the fiber tracts or pathways of the white matter are further developed to the distal portions (caudal portions) as well as causing the secondary degeneration of the origins of the fiber tract or pathways, namely the upper nerve cell bodies (i.e. origins) which project fibers (nerve processes) to the fiber tracts or pathways. As a result, the damages to the fiber tracts or pathways of the white matter in the lower thoracic cord, which received compression loading, induce the secondary degeneration of the origins (nerve cell bodies) sending fibers (also termed nerve processes or axons) to the fiber tracts or pathways as well as the secondary degeneration of fiber tracts located distal to the lower thoracic cord (i.e. lumbar cord and sacral cord) to cause paraplegia of both limbs. Further, since the innervation from the brain regions proximal to the lumbar cord and sacral cord is cut off due to damage to the lower thoracic cord, the secondary degeneration of nerve cells in the gray matters of the lumbar cord and sacral cord is further induced, as a result, paraplegia of the limbs can not be recovered. For that model of the spinal cord injury, the present inventors have used male Wistar rats (body weight about 300 g) loaded with 20 g of compression on the lower thoracic cord for 20 minutes.
Under inhalation anesthesia by a mixture of nitrous oxide and halothane, the rats were loaded with 20 g of compression on the lower thoracic cord for 20 minutes. After more than 30 minutes passed, ginsenoside Rb1 dissolved in physiological saline was injected once into the left femoral vein (12 μg or 60 μg), thereafter continuous or repetitive intravenous administration of ginsenoside Rb1 was performed for 7 days by using an Alza osmotic minipump (12 μg/day or 60 μ/day). Control animals and sham-operated animals were administered with the same amount of physiological saline (vehicle) alone. The open field locomotor scores [Basso, Bettie and Bresnakan (BBB) scores] were measured in each animal before loading spinal cord injury, on the day of spinal cord injury and from 1st day to 7th day after the spinal cord injury for use as an index of motor functions (Basso D. M. et al., J. Neurotrauma, 13, 343-359, 1996). BBB scores of the sham-operated rats (normal rats) were 20-21.
Under inhalation anesthesia by a mixture of nitrous oxide and halothane, the rats were loaded with 20 g of compression on the lower thoracic cord for 20 minutes. More than 30 minutes later, the crude saponin fraction dissolved in physiological saline was infused once into the left femoral vein (870 μg), thereafter continuous intravenous administration of the crude saponin fraction was performed for 7 days by using an Alza osmotic minipump (870 μg/day). Control animals with spinal cord injuries were administered with the same amount of physiological saline (vehicle) alone. […] These figures are photographs in place of drawings.
Under inhalation anesthesia by a mixture of nitrous oxide and halothane, wistar rats (body weight about 300 g) were loaded with 20 g of compression on the lower thoracic cord for 20 minutes. After they were awakened from anesthesia, the rats with paraplegia in both hindlimbs were allowed to stay for 1 hour and 40 minutes in the cage. […]

[2] = system: SH-SP rats with MCA permanent occlusion; assay: TTC staining of cerebral infarct lesion 24 hours after MCA permanent occlusion; type: in vivo, rat

SMILES | experimental animals died within 7 days after spinal cord injuries ([1]; Solu-Medrol 30 mg/kg, 4 out of 10 rats) | paralysis or paraplegia of both lower limbs [1] | paralysis or paraplegia of both lower limbs ([1]; listed as Solu-Medol) | healing of the operative dorsal wounds / ill effects ([1]; rat, in vivo) | cerebral infarct lesion (TTC staining) ([2]; dihydroginsenoside Rb1 intravenous 6 μg/day for 24 hours after MCA permanent occlusion) | volume of cerebral infarct lesion relative to non-administered group ([2]; intravenous low doses)
C[C@H]1C[C@@H]2[C@H]([C@@H](O)C[C@@]3(C)[C@H]2CC[C@]3(O)C(=O)COC(=O)CCC(=O)[O-])[C@@]2(C)C=CC(=O)C=C12.[Na+] [reference compound] | about 40% | no significant ameliorating effects | could not ameliorate | obviously delayed | – | –
CC(C)CCC[C@](C)(O[C@@H]1O[C@H](CO[C@@H]2O[C@H](CO)[C@@H](O)[C@H](O)[C@H]2O)[C@@H](O)[C@H](O)[C@H]1O)[C@H]1CC[C@]2(C)[C@@H]1[C@H](O)C[C@@H]1[C@@]3(C)CC[C@H](O[C@@H]4O[C@H](CO)[C@@H](O)[C@H](O)[C@H]4O[C@@H]4O[C@H](CO)[C@@H](O)[C@H](O)[C@H]4O)C(C)(C)[C@@H]3CC[C@]12C [dihydroginsenoside Rb1] | – | – | – | – | markedly reduced | about ¼
